# Measured values taken from paper PMC7576618 (British Journal of Clinical Pharmacology, 2020).
# Marks after values point to notes of the source that are not given here.
# Columns and labels:
# [1] = compared with monkeys; cited from earlier work
# [2] = SAD study: plasma pharmacokinetics after single oral TS-134; format: in vivo, human; conditions: for AUC0‐inf, mean (CV[%]) / Cmax, mean (CV[%]) / t1/2, mean (CV[%]) / tmax, median: plasma
# [3] = MAD study: plasma pharmacokinetics after multiple oral dose titration of TS-134; format: in vivo, human; conditions: for AUC0‐tau, mean (CV[%]) / Cmax, mean (CV[%]) / t1/2, mean (CV[%]) / tmax, median: plasma, MAD Day 14, fed
# [4] = SAD Parts A and C, 5 mg fasted (n = 6)
# [5] = SAD Parts A and C, 10 mg fasted (n = 4)
# [6] = SAD Parts A and C, 10 mg fed (n = 3)
# [7] = SAD Parts A and C, 20 mg fasted (n = 3)
# [8] = SAD Parts A and C, 20 mg fed (n = 3)
smiles,measurement,setting,value
CC(C)[C@@H]1CC[C@@H](C)C[C@H]1OC(=O)O[C@@H](C)OC(=O)[C@H]1[C@@H]2C[C@H](F)[C@@](N)(C(=O)O)[C@@H]21 [MGS0274],hydrolytic activity against MGS0274 in the human liver S9 fraction,[1],comparable to that in monkeys
same,reduction of plasma AUC in the fed group (food effect),"[2]; SAD, 10 and 20 mg TS‐134",almost no food effect
same,reduction of plasma Cmax in the fed group (food effect),"[2]; SAD, 10 and 20 mg TS‐134",up to 45%
same,plasma AUC of MGS0274 as share of the AUC of MGS0008,"[2]; molar ratio, single and multiple oral administration, all treatment groups",approximately 3%
same,"AUC0‐inf, mean (CV[%])","[2]; SAD Part B, 10 mg fed (n = 6)",36.47 ^e (61.58) h•ng mL^−1
same,"Cmax, mean (CV[%])","[2]; SAD Part B, 10 mg fed (n = 7)",13.00 (82.69) ng mL^−1
same,"t1/2, mean (CV[%])","[2]; SAD Part B, 10 mg fed (n = 7)",1.377 ^e (26.45) h
same,"tmax, median","[2]; SAD Part B, 10 mg fed (n = 7)",30 min
same,"AUC0‐inf, mean (CV[%])",[2]; [4],23.94 ^c (30.64) h•ng mL^−1
same,"Cmax, mean (CV[%])",[2]; [4],13.43 (55.44) ng mL^−1
same,"t1/2, mean (CV[%])",[2]; [4],1.013 ^c (35.22) h
same,"tmax, median",[2]; [4],30 min
same,"AUC0‐inf, mean (CV[%])",[2]; [5],29.33 (31.92) h•ng mL^−1
same,"Cmax, mean (CV[%])",[2]; [5],17.88 (40.87) ng mL^−1
same,"t1/2, mean (CV[%])",[2]; [5],0.8765 (17.66) h
same,"tmax, median",[2]; [5],60 min
same,"AUC0‐inf, mean (CV[%])",[2]; [6],22.69 (8.60) h•ng mL^−1
same,"Cmax, mean (CV[%])",[2]; [6],8.137 (16.40) ng mL^−1
same,"t1/2, mean (CV[%])",[2]; [6],1.505 (7.14) h
same,"tmax, median",[2]; [6],15 min
same,"AUC0‐inf, mean (CV[%])",[2]; [7],72.09 (50.40) h•ng mL^−1
same,"Cmax, mean (CV[%])",[2]; [7],49.07 (66.56) ng mL^−1
same,"t1/2, mean (CV[%])",[2]; [7],1.477 (14.30) h
same,"tmax, median",[2]; [7],15 min
same,"AUC0‐inf, mean (CV[%])",[2]; [8],84.30 ^d (16.80) h•ng mL^−1
same,"Cmax, mean (CV[%])",[2]; [8],33.27 (45.09) ng mL^−1
same,"t1/2, mean (CV[%])",[2]; [8],1.669 ^d (7.05) h
same,"tmax, median",[2]; [8],30 min
same,dose proportionality of steady‐state plasma Cmax and AUC,"[3]; MAD, 5–80 mg",dose proportional increases
same,"AUC0‐tau, mean (CV[%])",[3]; 5 mg (n = 8),14.90 (37.92) h•ng mL^−1
same,"Cmax, mean (CV[%])",[3]; 5 mg (n = 8),6.090 (79.22) ng mL^−1
same,"t1/2, mean (CV[%])",[3]; 5 mg (n = 8),1.247 (40.98) h
same,"tmax, median",[3]; 5 mg (n = 8),60 min
same,"AUC0‐tau, mean (CV[%])",[3]; 10 mg (n = 8),29.40 (23.81) h•ng mL^−1
same,"Cmax, mean (CV[%])",[3]; 10 mg (n = 8),13.91 (51.77) ng mL^−1
same,"t1/2, mean (CV[%])",[3]; 10 mg (n = 8),1.212 (35.09) h
same,"tmax, median",[3]; 10 mg (n = 8),30 min
same,"AUC0‐tau, mean (CV[%])",[3]; 20 mg (n = 8),56.36 (48.86) h•ng mL^−1
same,"Cmax, mean (CV[%])",[3]; 20 mg (n = 8),26.92 (66.42) ng mL^−1
same,"t1/2, mean (CV[%])",[3]; 20 mg (n = 8),1.567 (39.16) h
same,"tmax, median",[3]; 20 mg (n = 8),30 min
same,"AUC0‐tau, mean (CV[%])",[3]; 40 mg (n = 8),122.0 (29.47) h•ng mL^−1
same,"Cmax, mean (CV[%])",[3]; 40 mg (n = 8),40.38 (29.69) ng mL^−1
same,"t1/2, mean (CV[%])",[3]; 40 mg (n = 8),4.711 (52.68) h
same,"tmax, median",[3]; 40 mg (n = 8),60 min
same,"AUC0‐tau, mean (CV[%])",[3]; 60 mg (n = 8),170.0 (23.85) h•ng mL^−1
same,"Cmax, mean (CV[%])",[3]; 60 mg (n = 8),95.14 (42.43) ng mL^−1
same,"t1/2, mean (CV[%])",[3]; 60 mg (n = 8),7.549 (93.72) h
same,"tmax, median",[3]; 60 mg (n = 8),60 min
same,"AUC0‐tau, mean (CV[%])",[3]; 80 mg Cohort 5 (n = 7),142.0 (19.40) h•ng mL^−1
same,"Cmax, mean (CV[%])",[3]; 80 mg Cohort 5 (n = 7),85.27 (43.68) ng mL^−1
same,"t1/2, mean (CV[%])",[3]; 80 mg Cohort 5 (n = 7),10.52 (57.99) h
same,"tmax, median",[3]; 80 mg Cohort 5 (n = 7),60 min
same,"AUC0‐tau, mean (CV[%])",[3]; 80 mg Cohort 6 (n = 6),203.9 (24.30) h•ng mL^−1
same,"Cmax, mean (CV[%])",[3]; 80 mg Cohort 6 (n = 6),98.55 (37.09) ng mL^−1
same,"t1/2, mean (CV[%])",[3]; 80 mg Cohort 6 (n = 6),6.810 (23.98) h
same,"tmax, median",[3]; 80 mg Cohort 6 (n = 6),30 min
